Reference: patent publication US20220143210A1, “HYDROGEL COMPOSITIONS AND METHODS FOR TREATEMENT OF MALIGNANCIES” (Fred Hutchinson Cancer Research Center, priority 2019, published 2022)
Entries after “also recorded” stand apart in the source; their conditions may differ.

B1: IFNg: M1-polarizing agent (protein, UniProt P01579 24-161, looked up)
Interferon gamma: QDPYVKEAENLKKYFNAGHSDVADNGTLFLGILKNWKEESDRKIMQSQIVSFYFKLFKNFKDDQSIQKSVETIKEDMNVKFFNSNKKKRDDFEKLTNYSVTDLNVQRKAIHELIQVMAELSPAAKTGKRKRSQMLFRG

How the values were obtained:
[1] = system: GFP+ PDX brain tumor cells (HGG); assay: In vitro chemotaxis (transwell, Incucyte) assay; assay type: cell-based, human; conditions: for chemotaxis / migration of PDX brain tumor cells: chemokine gradient, transwell
Experimental: Cell migration assays were performed using the Chemotaxis software on Essen Bio's Incucyte Zoom 2016 and S3. Specialized 96 well transwell plates were supplied by Essen Bio. GFP+ PDX cells were cultured in the aforementioned Neuralcult media without EGF/FGF supplementation. The Incucyte software definitions were trained to identify GFP+ rounded objects spanning the range of healthy nuclei found in my cultures.
It has been hypothesized that it is possible to exploit the migratory behavior of high grade brain tumors by employing chemokine gradients to attract them out of inoperable locations and into a location within the brain that maximizes their exposure to opsonin and macrophages. […] Flow analysis confirms the expression of the requisite chemokine receptors on the HGG line used in our chemotaxis assay, as shown in FIGS. 2A-2C.

[2] = system: GFP+ HGG cells in a 1:1 co-culture with murine macrophages; assay type: cell-based, human PDX tumor cells, murine macrophages (C57/B6 mouse); conditions: single agent; macrophage species not specified
Experimental: All chemokines were purchased from Sigma-Aldrich. LEAF hCD47 mAb was purchased from eBioscience (cat number, B6H12 clone). Primary murine macrophages were derived from bone marrow of a C57/B6 mouse. Bone marrow derived mononuclear progenitors were cultured in RPMI with CSF-1 for 3 days before freezing/use in assays. Patient-derived xenograft (PDX) were obtained from autopsy or biopsy. PDX lines were cultured in Neuralcult Serum Free (Stem cell tech) with Neuralcult supplement (cat no), 100 U ml-1 PenStrep, Glutamax, EGF and FGF. Cells were grown adherent on tissue-culture treated plates after at least 2 hours of Laminin coating (Sigma-aldrich) in an incubator at 37° C. in 5% CO2. All PDX lines were transduced with H2b-GFP and Luciferase to assist in cell counting and tumor size visualization via IVIS. Xenograft tumors were established in the cortex of female athymic mice nu/nu (Harlan) mice. Tumors were allowed to grow to an IVIS threshold before study enrollment. All mouse studies were carried out following protocols approved by the IACUC at FHCRC (protocol 1457) and complied with all relevant ethical regulations.
Phagocytosis assays were performed using the Basic Analyzer software on Essen Bio's Incucyte Zoom 2016 and S3. […] Using the aforementioned definitions, the Incucyte calculated the reduction of GFP+ nuclei in the wells over time in response to those factors. […]

[3] = administered intravenously, clinically; cited from earlier work

Molecule | chemotaxis / migration of PDX brain tumor cells [1] | effects on the tumor cells in co-culture [2] | also measured
CCL2: classical immune cell chemokine, purchased from Sigma-Aldrich | induced varying degrees of chemotaxis; also recorded: effective at eliciting chemotaxis; also recorded: effective at eliciting migration |  | relative chemotactic potency across PDX lines ([1]; across all lines tested): most potency across all lines tested
CXCL12: classical immune cell chemokine, purchased from Sigma-Aldrich | induced varying degrees of chemotaxis; also recorded: effective at eliciting migration |  | 
IFNg: M1-polarizing agent |  | mild effects | 
CXCL8: classical immune cell chemokine, purchased from Sigma-Aldrich | induced varying degrees of chemotaxis; also recorded: effective at eliciting migration |  | 
CCOCc1nc2c(N)nc3ccccc3c2n1CC(C)(C)O [R848, reference compound] |  | mild effects | 
B1 |  |  | systemic toxicity [3]: dramatic systemic toxicity
